What was measured:
Type in all cases: in vivo
Rhipicephalus sanguineus = Rhipicephalus sanguineus in-vitro contact test, adult brown dog ticks; settings: 5 μg/cm^2 (=500 g/ha), after 48 hours, read-out: efficacy (ticks dead or moribund)
Description: Rhipicephalus Sanguineus—In-Vitro Contact Tests with Adult Brown Doe Ticks
9 mg compound is solved in 1 ml acetone and diluted with acetone to the desired concentration. 250 μl of the test solution is filled in 25 ml glass test tubes and homogeneously distributed on the inner walls by rotation and tilting on a shaking device (2 h at 30 rpm). With a compound concentration of 900 ppm, an inner surface of 44.7 cm^2 and a homogeneous distribution, a dose of 5 μg/cm^2 is achieved.
After the solvent has evaporated, each test tube is filled with 5-10 adult brown dog ticks (Rhipicephalus sanguineus), closed with a perforated lid and incubated in a lying position at room temperature and relative humidity. After 48 hours efficacy is determined. The ticks are patted on the ground of the tubes and are incubated on a heating plate at 45-50° C. for at most 5 minutes. Immotile or uncoordinated moving ticks, which are not able to escape the heat by climbing upwards, are marked as dead or moribund.
An efficacy of 100% means all ticks are dead or moribund; 0% means no ticks are dead or moribund.

Ctenocephalides felis [1] = assay: Ctenocephalides felis oral test; settings: 48 h, 100 ppm in cattle blood, after 2 days, adult unfed cat fleas
Method in brief: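 Compound dissolved in DMSO and diluted in cattle blood to test concentration, offered to ~20 unfed adult fleas via a parafilm-sealed blood chamber held at 37° C (fleas at room temperature). Kill recorded at 2 days as % mortality.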

[2] = test system: cattle ticks (Boophilus microplus) strane Parhurst, SP-resistant; assay: Boophilus microplus dip test; settings: Rhipicephalus microplus, 168 h, engorged adult female cattle ticks, egg deposition after 7 days, read-out: efficacy (infertile eggs)
Description: Boophilus microplus—Dip Test
Test animal: cattle ticks (Boophilus microplus) strane Parhurst, SP-resistant
Solvent: dimethyl sulfoxide
To produce a suitable preparation of active compound, 10 mg of active compound are dissolved in 0.5 ml solvent, and the concentrate is diluted with water to the desired concentration.
This compound solution is pipetted into tubes. 8-10 engorged, adult, female cattle ticks (Boophilus microplus) are placed in perforated tubes. These tubes are immersed in the aqueous compound solution until the ticks are completely moistened. After the liquid has drained off, the ticks are transferred to a filter paper in a plastic tray and stored in a climate chamber.
After 7 days egg deposition of fertile eggs is monitored. Eggs where fertility is not visible are stored in a climate chamber till hatching after about 42 days. An efficacy of 100% means all eggs are infertile; 0% means all eggs are fertile.

Nezara viridula = Nezara viridula spray test; settings: 96 h, after 4 days, larvae on barley plants
Method in brief: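 Mortality (%) was assessed at day 4, from 0% (no bugs dead) to 100% (all dead). The spray solution was compound diluted to test concentration in water with 1000 ppm emulsifier and applied to barley carrying southern green stink bug larvae.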

Spodoptera frugiperda = Spodoptera frugiperda spray test; settings: 168 h, after 7 days, larvae on maize leaf sections
Method in brief: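 Read-out: % larval mortality at day 7, where 100% means all killed and 0% none killed. Compound diluted in water with 1000 ppm emulsifier, sprayed onto Zea mays leaf sections; dried sections then infested with S. frugiperda larvae.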

Nilaparvata lugens = Nilaparvata lugens spray test; settings: 336 h, after 14 days, rice plants
Description: Nilaparvata lugens—Spray Test
(§1) To produce a suitable preparation of active compound, 1 part by weight of active compound is mixed with the stated amount of solvents and is diluted with water, containing an emulsifier concentration of 1000 ppm, to the desired concentration. Further test concentrations are prepared by dilution with emulsifier containing water.
Rice plants (Oryza sativa) are sprayed with a preparation of the active ingredient of the desired concentration and the plants are infested with the brown planthopper (Nilaparvata lugens).
After 14 days mortality in % is determined. 100% means all planthoppers have been killed and 0% means none of the planthoppers have been killed.

Ctenocephalides felis [3] = assay: Ctenocephalides felis in-vitro contact test, adult cat flea; settings: 5 μg/cm^2 (=500 g/ha), after 48 hours, adult cat fleas, read-out: efficacy (fleas dead or moribund)
Description: Ctenocephalides Felis—In-Vitro Contact Tests Adult Cat Flea 9 mg compound is solved in 1 ml acetone and diluted with acetone to the desired concentration. 250 μl of the test solution is filled in 25 ml glass test tubes and homogeneously distributed on the inner walls by rotation and tilting on a shaking device (2 h at 30 rpm). With a compound concentration of 900 ppm, an inner surface of 44.7 cm^2 and a homogeneous distribution, a dose of 5 μg/cm^2 is achieved. After the solvent has evaporated, each test tube is filled with 5-10 adult cat fleas (Ctenocephalides felis), closed with a perforated lid and incubated in a lying position at room temperature and relative humidity. After 48 hours efficacy is determined. The fleas are patted on the ground of the tubes and are incubated on a heating plate at 45-50° C. for at most 5 minutes. Immotile or uncoordinated moving fleas, which are not able to escape the heat by climbing upwards, are marked as dead or moribund. […] An efficacy of 100% means all fleas are dead or moribund; 0% means no fleas are dead or moribund.

Diabrotica balteata = Diabrotica balteata spray test; settings: Diabrotica balteata, in Triticum aestivum, 168 h, after 7 days, larvae on wheat seeds, read-out: efficacy (seedlings grown up); for pest or weed control at 80 µg/disc, 250 g/ha: 80 μg/well (=250 g/ha); for pest or weed control at 160 µg/disc, 500 g/ha: 160 μg/well (=500 g/ha)
Method in brief: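 Scoring at 7 days compares seedling growth with untreated, uninfested controls (100% = equal growth, 0% = none grown). Wheat seedlings germinated 1 day on agar, 5 per well, received a spray of test solution made in 1000 ppm emulsifier water. Each unit then received 10–20 beetle larvae.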

Boophilus microplus = Boophilus microplus injection test; settings: Rhipicephalus microplus, 168 h; 20 μg/animal injected into the abdomen; adult engorged female ticks; egg deposition after 7 days; read-out: efficacy (infertile eggs)
Method in brief: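 Efficacy, from 0% (all eggs fertile) to 100% (all infertile), was scored on eggs laid by five engorged adult females. Each female was injected intra-abdominally with 1 μl of compound solution in DMSO. Fertile egg laying was checked at 7 days, with uncertain eggs kept until hatching at about 42 days.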

Myzus persicae [4] = assay: Myzus persicae oral test; settings: 120 h, 4 ppm, after 5 days
Method in brief: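 Aphid mortality (%) was recorded 5 days after a mixed Myzus persicae population began sucking, through parafilm, on compound solutions (acetone stock diluted with water) combined with sugar-supplemented IPL41 medium.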

Myzus persicae [5] = assay: Myzus persicae spray test; settings: foliar, 120 h, after 5 days, Chinese cabbage leaf disks
Method in brief: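 Percent kill was recorded 5 days after spraying. Test solutions, prepared with solvent and diluted in 1000 ppm emulsifier water, were applied to Brassica pekinensis leaf disks carrying mixed-instar green peach aphids.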

[6] = test system: Culex quinquefasciatus strain P00; assay: Culex quinquefasciatus test (CULXFA surface treatment & contact assay); settings: 24 hours after contact, read-out: efficacy (mortality)
Method in brief: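 Compound dissolved in acetone (2 mg/ml) with 2000 ppm rapeseed oil methyl ester, applied to glazed tile and dried; adult C. quinquefasciatus strain P00 exposed to surface for 30 minutes. Mortality (%) scored 24 hours after contact.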

[7] = test system: Musca domestica strain WHO-N; assay: Musca domestica test (MUSCDO surface treatment & contact assay); settings: 24 hours after contact, read-out: efficacy (mortality)
Description: Musca domestica test (MUSCDO surface treatment & contact assay)
(§2) Solvent: Aceton+2000 ppm rapeseed oil methyl ester (RME)
(§3) In order to produce a sufficient, active ingredient containing solution it is necessary to solve the test compound in the solvent-mix (acetone at 2 mg/ml/RME 2000 ppm). This solution is pipetted onto a glazed tile and after evaporation of the acetone, adult flies of the species Musca domestica strain WHO-N are placed onto the dried surface. The exposure time is 30 minutes.
Mortality in percent (%) is determined 24 hours after contact of the insects to the treated surface. 100% morality means that all tested insects are dead, whereas 0% means that no insect died.

[8] = test system: Aedes aegypti strain MONHEIM; assay: Aedes aegypti test (AEDSAE surface treatment & contact assay); settings: 24 hours after contact, read-out: efficacy (mortality)
Method in brief: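 Compound dissolved in acetone (2 mg/ml) with 2000 ppm rapeseed oil methyl ester, applied to glazed tile and dried; adult strain MONHEIM mosquitoes exposed 30 minutes. Percent mortality scored 24 hours after contact.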

[9] = test system: Anopheles funestus strain FUMOZ-R; assay: Anopheles funestus test (ANPHFU surface treatment & contact assay); settings: 24 hours after contact, read-out: efficacy (mortality)
Description: Anopheles funestus Test (ANPHFU Surface Treatment & Contact Assay)
as §2
as §3, with “mosquitoes” for “flies”, “Anopheles funestus” for “Musca domestica”, “FUMOZ-R (Hunt et al., Med. Vet. Entomol. 2005 September; 19(3): 271-275)” for “WHO-N”
Mortality in percent (%) is determined 24 hours after contact of the insects to the treated surface. 100% mortality means that all tested insects are dead, whereas 0% means that no insect died.

Phaedon cochleariae = Phaedon cochleariae spray test; settings: foliar, 168 h, after 7 days, larvae on Chinese cabbage leaf disks
Description: Phaedon Cochleariae—Spray Test
as §1
Chinese cabbage (Brassica pekinensis) leaf disks are sprayed with a preparation of the active ingredient of the desired concentration. Once dry, the leaf disks are infested with mustard beetle larvae (Phaedon cochleariae).
After 7 days mortality in % is determined. 100% means all beetle larvae have been killed and 0% means none of the beetle larvae have been killed.

[10] = surface concentration 4 mg/m^2, exposure 30 minutes
[11] = surface concentration 20 mg/m^2, exposure 30 minutes

Row | Compound | pest or weed control at 5 µg/cm2 (Rhipicephalus sanguineus) | mortality at 100 ppm (Ctenocephalides felis [1]) | mortality at 100 g/ha (Nezara viridula) | mortality at 500 g/ha (Nezara viridula) | mortality at 100 g/ha (Spodoptera frugiperda) | mortality at 500 g/ha (Spodoptera frugiperda) | mortality at 500 g/ha (Nilaparvata lugens) | pest or weed control at 5 µg/cm2 (Ctenocephalides felis [3]) | pest or weed control at 80 µg/disc, 250 g/ha (Diabrotica balteata) | pest or weed control at 160 µg/disc, 500 g/ha (Diabrotica balteata) | pest or weed control at 0.02 mg (Boophilus microplus) | mortality at 4 ppm (Myzus persicae [4]) | mortality at 100 g/ha (Myzus persicae [5]) | mortality at 500 g/ha (Myzus persicae [5]) | further results
1 | C[C@H](NC(=O)c1cc(Cl)cc(C(F)(F)F)c1)c1ncnn1-c1ncc(OC(F)F)cn1 [Example I-012] | 100% | 100% | 100% | 100% | 100% | 100% | 100% | 100% | 100% | 100% | 100% |  |  |  | pest or weed control at 100 ppm [2]: 95%
2 | C[C@H](NC(=O)c1cncc(C(F)(F)F)c1)c1ncnn1-c1ccc(C#N)cn1 [Example I-067] | 100% | 100% | 100% | 100% | 100% | 100% | 90% | 100% | 100% | 100% | 100% | 100% | 90% | 90% | 
3 | C[C@H](NC(=O)c1cc(C(F)(F)F)cc(C(F)(F)F)c1)c1ncnn1-c1ncc(F)cc1F [Example I-077] |  | 100% | 100% | 100% | 100% | 100% | 100% | 100% | 100% | 100% | 100% | 100% | 90% | 90% | 
4 | C[C@H](NC(=O)c1cc(Cl)cc(C(F)(F)F)c1)c1ncnn1-c1ncc(F)cc1F [Example I-014] |  | 100% | 100% | 100% | 100% | 100% | 100% |  | 100% | 100% | 100% | 100% | 90% | 90% | mortality at 4 mg/m2 [6, 10]: 90 to 100%; mortality at 20 mg/m2 [6, 11]: 90 to 100%; mortality at 4 mg/m2 [7, 10]: 90 to 100%; mortality at 20 mg/m2 [7, 11]: 90 to 100%; mortality at 4 mg/m2 [8, 10]: 90 to 100%; mortality at 20 mg/m2 [8, 11]: 90 to 100%; mortality at 4 mg/m2 [9, 10]: 85 to 100%; mortality at 20 mg/m2 [9, 11]: 90 to 100%
5 | CC(c1ncnn1-c1nc2ccccn2n1)N(CC1CC1)C(=O)c1cc(Cl)cc(C(F)(F)F)c1 (centres unmarked) [Example I-005] |  | 100% |  | 100% |  | 100% |  |  | 100% | 100% | 100% |  |  |  | mortality at 500 g/ha (Phaedon cochleariae): 100%
6 | C[C@H](NC(=O)c1cc(Cl)cc(C(F)(F)F)c1)c1ncnn1-c1ccc(-n2cccn2)cn1 [Example I-074] | 80% | 80% |  |  | 100% | 100% |  | 80% | 100% | 100% | 100% |  |  |  | 
7 | C[C@H](NC(=O)c1cc(Cl)cc(C(F)(F)F)c1)c1ncnn1-c1ccc(N(S(C)(=O)=O)S(C)(=O)=O)cn1 [Example I-037] |  | 100% | 100% | 100% | 100% |  | 100% | 100% | 100% | 100% | 100% |  | 90% | 90% | pest or weed control at 100 ppm [2]: 100%

Source: patent US12171229B2, “Heteroaryl-triazole and heteroaryl-tetrazole compounds as pesticides” (BAYER AKTIENGESELLSCHAFT, priority 2018, dated 2024)
